The values that follow come from US20220106296A1, “CYANOTRIAZOLE COMPOUNDS AND USES THEREOF” (Novartis AG, priority 2018, published 2022).

The test system of the experiment is T. b. brucei Lister427 bloodstream form parasites. As to the kind of experiment: T. b. brucei growth inhibition assay (CellTiter-Glo, 48 hours). Format: cell-based. The settings on record: Trypanosoma brucei. The text has this: Bloodstream form of T. b. brucei Lister427 strain was obtained from the Genomics Institute of the Novartis Research Foundation. This strain was used for carrying out growth inhibition and kill kinetics assays. T. b. gambiense STIB930 and T. b. rhodesiense STIB900 were obtained from Swiss TPH, were used for carrying out the growth inhibition assays.
Bloodstream form T. b. brucei Lister 427 parasites were continuously passaged in HMI-9 medium formulated from IMDM medium (Invitrogen), 10% heat-inactivated fetal bovine serum (FBS), 10% Serum Plus medium supplement (SAFC Biosciences), 1 mM hypoxanthine (Sigma-Aldrich), 50 μM bathocuproine disulfonic acid (Sigma-Aldrich), 1.5 mM cysteine (Sigma-Aldrich), 1 mM pyruvic acid (Sigma-Aldrich), 39 μg/mL thymidine (Sigma-Aldrich), and 14 μL/L beta-mercapthoethanol (Sigma-Aldrich); all concentrations of added components refer to that in complete HMI-9 medium. The parasites were cultured in 10 mL of HMI-9 medium in T75 CELL-STAR tissue culture flasks at 37° C./5% CO2.
To determine compound growth inhibitory potency on T. b. brucei Lister427 bloodstream form parasites, 200 nL of 10-point, 3 fold serially diluted compounds in DMSO were transferred to the wells of white, solid bottom 384-well plates (Greiner Bio-One) by either Echo 555 acoustic liquid handling system or Mosquito. Then, 1×10^4 of T. b. brucei parasites in 40 μL of HMI-9 medium were added to each well, and the plates were incubated for 48 hours at 37° C. in 5% CO2 incubators. Parasite numbers in individual plate wells were determined through quantification of intracellular ATP amount. The CellTiter-Glo luminescent cell viability reagent (Promega) was added to plate wells, and ATP-dependent luminescence signal was measured on Tecan M1000 plate Reader after 30 min incubation. Luminescence values in wells with compounds were divided by the average luminescence value of the plate DMSO controls, and used for calculation of compound IC50 values.
One may read the IC50 as the concentration at which inhibition is half-maximal. The compound `N#Cc1ncn(CC(=O)N2Cc3ccc(-c4ccc(Cl)cc4F)cc3C2)n1` [Example 58, 1-(2-(5-(4-chloro-2-fluorophenyl)isoindolin-2-yl)-2-oxoethyl)-1H-1,2,4-triazole-3-carbonitrile] yielded a 50% inhibitory concentration (IC50) of at least 1 µM.

In turn, `N#Cc1ncn(CC(=O)N2Cc3ccc(-c4ccc(F)c(F)c4)cc3C2)n1` [Example 72, 1-(2-(5-(3,4-difluorophenyl)isoindolin-2-yl)-2-oxoethyl)-1H-1,2,4-triazole-3-carbonitrile] yielded a concentration for half-maximal inhibition (IC50) of at least 1 µM.

`N#Cc1ncn(CC(=O)N2Cc3ccc(-c4ccnc(F)c4)cc3C2)n1` [Example 63, 1-(2-(5-(2-fluoropyridin-4-yl)isoindolin-2-yl)-2-oxoethyl)-1H-1,2,4-triazole-3-carbonitrile]: the IC50 was at least 1 µM.

For the compound `N#Cc1ncn(CC(=O)N2Cc3ccc(-c4ccc(Cl)c(F)c4)cc3C2)n1` [Example 70, 1-(2-(5-(4-chloro-3-fluorophenyl)isoindolin-2-yl)-2-oxoethyl)-1H-1,2,4-triazole-3-carbonitrile], the IC50 was at least 1 µM.

`N#Cc1cccc(-c2ccc3c(c2)CN(C(=O)Cn2cnc(C#N)n2)C3)c1` [Example 54, 1-(2-(5-(3-cyanophenyl)isoindolin-2-yl)-2-oxoethyl)-1H-1,2,4-triazole-3-carbonitrile]: the IC50 was at least 1 µM.

As to `C#Cc1ccc(-c2ccc3c(c2)CN(C(=O)Cn2cnc(C#N)n2)C3)cc1` [Example 64, 1-(2-(5-(4-ethynylphenyl)isoindolin-2-yl)-2-oxoethyl)-1H-1,2,4-triazole-3-carbonitrile], the IC50 is at least 1 µM.

`N#Cc1ncn(CC(=O)N2Cc3ccc(-c4ccc(Cl)cc4)cc3C2)n1` [Example 71, 1-(2-(5-(4-chlorophenyl)isoindolin-2-yl)-2-oxoethyl)-1H-1,2,4-triazole-3-carbonitrile] came in with an IC50 of at least 1 µM.

On to `N#Cc1ncn(CC(=O)N2Cc3ccc(-c4cc(F)ccc4C(F)(F)F)cc3C2)n1` [Example 28, 1-(2-(5-(5-fluoro-2-(trifluoromethyl)phenyl)isoindolin-2-yl)-2-oxoethyl)-1H-1,2,4-triazole-3-carbonitrile], for which the IC50 was under 0.1 µM.

For `N#Cc1ncn(CC(=O)N2Cc3ccc(-c4ccncc4Cl)cc3C2)n1` [Example 49, 1-(2-(5-(3-chloropyridin-4-yl)isoindolin-2-yl)-2-oxoethyl)-1H-1,2,4-triazole-3-carbonitrile], the IC50 lay within 0.1 to 1 µM.

In turn, `N#Cc1ncn(CC(=O)N2Cc3ccc(-c4ccccc4-c4ccccc4)cc3C2)n1` [Example 69, 1-(2-(5-([1,1′-biphenyl]-2-yl)isoindolin-2-yl)-2-oxoethyl)-1H-1,2,4-triazole-3-carbonitrile] came in with a concentration for half-maximal inhibition (IC50) of at least 1 µM.

Regarding `N#Cc1ncn(CC(=O)N2Cc3ccc(-c4ccc(F)nc4)cc3C2)n1` [Example 56, 1-(2-(5-(6-fluoropyridin-3-yl)isoindolin-2-yl)-2-oxoethyl)-1H-1,2,4-triazole-3-carbonitrile], the half-inhibitory concentration (IC50) is at least 1 µM.

For `N#Cc1ncn(CC(=O)N2Cc3ccc(-c4cccnc4F)cc3C2)n1` [Example 73, 1-(2-(5-(2-fluoropyridin-3-yl)isoindolin-2-yl)-2-oxoethyl)-1H-1,2,4-triazole-3-carbonitrile], the IC50 is at least 1 µM.

As to `COc1ccc(OC)c(-c2ccc3c(c2)CN(C(=O)Cn2cnc(C#N)n2)C3)c1` [Example 59, 1-(2-(5-(2,5-dimethoxyphenyl)isoindolin-2-yl)-2-oxoethyl)-1H-1,2,4-triazole-3-carbonitrile], the IC50 was at least 1 µM.

In turn, `N#Cc1ncn(CC(=O)N2Cc3ccc(-c4ccccc4F)cc3C2)n1` [Example 65, 1-(2-(5-(2-fluorophenyl)isoindolin-2-yl)-2-oxoethyl)-1H-1,2,4-triazole-3-carbonitrile] displayed a half-inhibitory concentration (IC50) of at least 1 µM.

`N#Cc1ncn(CC(=O)N2Cc3ccc(-c4cccc(Cl)c4)cc3C2)n1` [Example 80, 1-(2-(5-(3-chlorophenyl)isoindolin-2-yl)-2-oxoethyl)-1H-1,2,4-triazole-3-carbonitrile] gave a 50% inhibitory concentration (IC50) of at least 1 µM.

`N#Cc1ncn(CC(=O)N2Cc3ccc(-c4ccc(F)c(Cl)c4)cc3C2)n1` [Example 68, 1-(2-(5-(3-chloro-4-fluorophenyl)isoindolin-2-yl)-2-oxoethyl)-1H-1,2,4-triazole-3-carbonitrile] displayed an IC50 of at least 1 µM.

In turn, `N#Cc1ncn(CC(=O)N2Cc3ccc(-c4ccc(C(F)(F)F)cc4)cc3C2)n1` [Example 76, 1-(2-oxo-2-(5-(4-(trifluoromethyl)phenyl)isoindolin-2-yl)ethyl)-1H-1,2,4-triazole-3-carbonitrile] gave an IC50 of at least 1 µM.

For `N#Cc1ncn(CC(=O)N2Cc3ccc(-c4ccc(Br)cc4)cc3C2)n1` [Example 67, 1-(2-(5-(4-bromophenyl)isoindolin-2-yl)-2-oxoethyl)-1H-1,2,4-triazole-3-carbonitrile], the 50% inhibitory concentration (IC50) was at least 1 µM.

`N#Cc1ncn(CC(=O)N2Cc3ccc(-c4ccncc4F)cc3C2)n1` [Example 60, 1-(2-(5-(3-fluoropyridin-4-yl)isoindolin-2-yl)-2-oxoethyl)-1H-1,2,4-triazole-3-carbonitrile] yielded a half-inhibitory concentration (IC50) of at least 1 µM.

Consider `N#Cc1ncn(CC(=O)N2Cc3ccc(-c4cccnc4Cl)cc3C2)n1` [Example 47, 1-(2-(5-(2-chloropyridin-3-yl)isoindolin-2-yl)-2-oxoethyl)-1H-1,2,4-triazole-3-carbonitrile], for which the IC50 is 0.1 to 1 µM.

The compound `N#Cc1ncn(CC(=O)N2Cc3ccc(-c4ccccc4)cc3C2)n1` [Example 79, 1-(2-oxo-2-(5-phenylisoindolin-2-yl)ethyl)-1H-1,2,4-triazole-3-carbonitrile] returned an IC50 of at least 1 µM.

For the compound `COc1ccc(OC(F)(F)F)cc1-c1ccc2c(c1)CN(C(=O)Cn1cnc(C#N)n1)C2` [Example 62, 1-(2-(5-(2-methoxy-5-(trifluoromethoxy)phenyl)isoindolin-2-yl)-2-oxoethyl)-1H-1,2,4-triazole-3-carbonitrile], the half-inhibitory concentration (IC50) is at least 1 µM.

Regarding `COc1ccccc1-c1ccc2c(c1)CN(C(=O)Cn1cnc(C#N)n1)C2` [Example 75, 1-(2-(5-(2-methoxyphenyl)isoindolin-2-yl)-2-oxoethyl)-1H-1,2,4-triazole-3-carbonitrile], the IC50 was at least 1 µM.

As to `COc1ccc(-c2ccc3c(c2)CN(C(=O)Cn2cnc(C#N)n2)C3)c(OC)c1` [Example 53, 1-(2-(5-(2,4-dimethoxyphenyl)isoindolin-2-yl)-2-oxoethyl)-1H-1,2,4-triazole-3-carbonitrile], the IC50 is at least 1 µM.

As for `COc1ccc(-c2ccc3c(c2)CN(C(=O)Cn2cnc(C#N)n2)C3)cc1` [Example 61, 1-(2-(5-(4-methoxyphenyl)isoindolin-2-yl)-2-oxoethyl)-1H-1,2,4-triazole-3-carbonitrile], the half-maximal inhibitory concentration (IC50) is at least 1 µM.

For the compound `COc1ccc(F)cc1-c1ccc2c(c1)CN(C(=O)Cn1cnc(C#N)n1)C2` [Example 57, 1-(2-(5-(5-fluoro-2-methoxyphenyl)isoindolin-2-yl)-2-oxoethyl)-1H-1,2,4-triazole-3-carbonitrile], the concentration for half-maximal inhibition (IC50) is at least 1 µM.

Turning to `COc1cccc(-c2ccc3c(c2)CN(C(=O)Cn2cnc(C#N)n2)C3)c1` [Example 77, 1-(2-(5-(3-methoxyphenyl)isoindolin-2-yl)-2-oxoethyl)-1H-1,2,4-triazole-3-carbonitrile], the IC50 was at least 1 µM.

The compound `N#Cc1ncn(CC(=O)N2Cc3ccc(-c4ccc(F)cc4F)cc3C2)n1` [Example 55, 1-(2-(5-(2,4-difluorophenyl)isoindolin-2-yl)-2-oxoethyl)-1H-1,2,4-triazole-3-carbonitrile] had an IC50 of at least 1 µM.

In turn, `N#Cc1ncn(CC(=O)N2Cc3ccc(-c4ccc(F)cc4)cc3C2)n1` [Example 82, 1-(2-(5-(4-fluorophenyl)isoindolin-2-yl)-2-oxoethyl)-1H-1,2,4-triazole-3-carbonitrile] registered an IC50 of at least 1 µM.

`Cc1cc(-c2ccc3c(c2)CN(C(=O)Cn2cnc(C#N)n2)C3)ccc1C(F)(F)F` [Example 78, 1-(2-(5-(3-methyl-4-(trifluoromethyl)phenyl)isoindolin-2-yl)-2-oxoethyl)-1H-1,2,4-triazole-3-carbonitrile] returned an IC50 of at least 1 µM.

`N#Cc1ncn(CC(=O)N2Cc3ccc(-c4ccncc4)cc3C2)n1` [Example 66, 1-(2-oxo-2-(5-(pyridin-4-yl)isoindolin-2-yl)ethyl)-1H-1,2,4-triazole-3-carbonitrile] showed an IC50 of at least 1 µM.

`N#Cc1ncn(CC(=O)N2Cc3ccc(-c4ccc(OC(F)(F)F)cc4)cc3C2)n1` [Example 83, 1-(2-oxo-2-(5-(4-(trifluoromethoxy)phenyl)isoindolin-2-yl)ethyl)-1H-1,2,4-triazole-3-carbonitrile] displayed a half-inhibitory concentration (IC50) of at least 1 µM.

In turn, `N#Cc1ncn(CC(=O)N2Cc3ccc(-c4cccc(F)c4)cc3C2)n1` [Example 81, 1-(2-(5-(3-fluorophenyl)isoindolin-2-yl)-2-oxoethyl)-1H-1,2,4-triazole-3-carbonitrile] showed a concentration for half-maximal inhibition (IC50) of at least 1 µM.
